Measured values published in publication PMC9312196, “Enzymatic Biosynthesis of Simple Phenolic Glycosides as Potential Anti-Melanogenic Antioxidants” (Antioxidants, 2022).
Several values for one entry are separate records, joined by “and”; a condition that tells them apart may be missing. Identical values can stand only once. Like-named read-outs stand apart in the source and are kept apart here.

Tests used:
[1] = system: B16F10 murine melanoma cells; assay: MTT cytotoxicity assay on B16F10 cells; type: cell-based; settings: 48 h treatment, highest 20 mM concentration
Method: The cytotoxic effects of SP aglycones and their glycosides on B16F10 cells was determined using a conventional MTT assay. B16F10 murine melanoma cells were routinely maintained in Dulbecco’s modified Eagle’s medium (DMEM) (Gibco, New York, NY, USA) supplemented with 10% heat-inactivated fetal bovine serum (Gibco), 100 units/mL penicillin and 100 μg/mL streptomycin (Gibco) at 37 °C under humidified 5% CO2 atmosphere. For the assay, these B16F10 cells were seeded in advance in 24-well plastic tissue culture plates at a density of 2 × 10^3 cells/well. After 24 h cultivation, the cells within individual wells were treated with the indicated concentrations of SPs and their glycosides for 48 h. The cells were incubated with MTT solution for additional 4 h in the dark, and the reduced formazan crystals were then dissolved in DMSO; the DMSO percentage in the media was kept below 0.5%. The resulting mixture was transferred to a 96-well microplate, and then the absorbance was measured at 570 nm using a SpectraMax microplate reader (Molecular Devices, Sunnyvale, CA, USA).
[…]. The treatment concentrations of SP aglycones and their glycosides for the bioassays were selected in advance by monitoring their cytotoxicity against the B16F10 murine melanoma cell line using α-arbutin as the reference. […]

[2] = system: melanin biosynthesis in B16F10 murine melanoma cells; assay: Inhibition of α-MSH-induced cellular melanin biosynthesis in B16F10 cells; type: cell-based; settings: fixed 20 μM treatments, 48 h, 2 μM α-MSH
Method: The inhibitory effects of SPs and their glycosides towards cellular melanin biosynthesis were examined using the above-described B16F10 murine melanoma cells. After 24 h seed cultivation in a 24-well plate, these cells were treated with the indicated concentrations of SPs and their glycosides for a further 48 h in the presence of 2 μM α-melanocyte stimulating hormone (α-MSH, Sigma-Aldrich). After washing twice with chilled Dulbecco’s PBS supplemented with calcium chloride and magnesium chloride, the resulting cells were treated with trypsin-EDTA solution (Sigma-Aldrich) to recover melanoma cells. After centrifugation at 1000× […] for 3 min, the cell pellet recovered was dissolved in 100 μL of 1 M NaOH solution (containing 10% DMSO) at 55 °C for 1 h. The melanin content was determined by the absorbance at 405 nm using a microplate reader according to the calibration curve obtained from melanin (Sigma-Aldrich) standards, and melanin synthesis inhibitory activities were expressed as the percentage inhibition of cellular melanin synthesis in the above assay; α-arbutin was used as positive control, while DMSO only was used as negative control.

[3] = system: B16F10 murine melanoma cells; parameters: method as in PMID 28467382; settings: concentrations less than 5.0 mM; cited from earlier work
[4] = DPPH free radical scavenging assay (in vitro antioxidant activity); settings: 100 μM DPPH, 30 °C, 15 min
Method: DPPH (1,1-diphenyl-2-picryl-hydrazyl-hydrate) free radical scavenging assay was employed for determining the in vitro antioxidant activity of SP aglycones and their generated glycosides; L-ascorbic acid was utilized as a positive control whereas DMSO only was used as negative control. The antioxidant activities were expressed as IC50 value (as the concentration of an antioxidant at which 50% of inhibition of free radicals). In brief, 1.9 mL of the 100 μM DPPH reagent (in MeOH) was added into 0.1 mL of each sample diluted within 0.1 to 2 mM range (0.1, 0.2, 0.5, 1.0 and 2.0 mM dissolved in DMSO). After being mixed well by shaking for 5 s, the mixtures were then incubated at 30 °C for 15 min, followed by measuring absorbance with a microplate reader at 515 nm.

[5] = parameters: method as in PMID 35453457; settings: read-out: DPPH radical scavenging IC50; cited from earlier work
[6] = target: T1, tyrosinase (mushroom origin) (Agaricus bisporus, UniProt C7FF04); assay: In vitro tyrosinase inhibition with L-tyrosine as substrate; type: biochemical; settings: for IC50: mushroom tyrosinase, L-tyrosine substrate, read-out: tyrosinase inhibitory IC50; for fold higher tyrosinase inhibitory effect than kojic acid: ratio of IC50 values vs kojic acid
T1 construct: purchased Sigma-Aldrich
T1 sequence (C7FF04 1-392 limits assumed): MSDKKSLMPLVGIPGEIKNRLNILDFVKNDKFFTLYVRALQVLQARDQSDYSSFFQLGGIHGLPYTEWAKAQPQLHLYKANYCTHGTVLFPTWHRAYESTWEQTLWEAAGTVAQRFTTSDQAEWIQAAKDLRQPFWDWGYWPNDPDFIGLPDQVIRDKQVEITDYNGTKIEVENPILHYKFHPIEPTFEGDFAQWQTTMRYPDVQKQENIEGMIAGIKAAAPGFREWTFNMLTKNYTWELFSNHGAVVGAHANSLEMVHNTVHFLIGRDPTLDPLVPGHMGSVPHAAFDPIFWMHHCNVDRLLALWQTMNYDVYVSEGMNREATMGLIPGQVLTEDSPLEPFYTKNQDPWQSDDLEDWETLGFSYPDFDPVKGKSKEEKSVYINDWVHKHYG
Method: The in vitro inhibitory effects of SPs and their glycosides towards tyrosinase (Sigma-Aldrich; mushroom origin; 2000 Unit/mL) activities were determined using L-tyrosine as a substrate. Briefly, the reaction mixtures, comprising 100 μL phosphate buffer (pH 6.8, 100 mM), 20 μL of tyrosinase (250 U/mL) and 20 μL of varying concentrations of SPs and their glycosides (in DMSO), were preincubated at 30 °C for 10 min.

[7] = target: T2, porcine pancreas elastase (Sus scrofa, UniProt P00772); assay: In vitro elastase inhibition with AAAPVN substrate; type: biochemical; settings: read-out: elastase inhibitory IC50
T2 construct: purchased Sigma-Aldrich; host or cells: porcine pancreas
T2 sequence (P00772 27-266): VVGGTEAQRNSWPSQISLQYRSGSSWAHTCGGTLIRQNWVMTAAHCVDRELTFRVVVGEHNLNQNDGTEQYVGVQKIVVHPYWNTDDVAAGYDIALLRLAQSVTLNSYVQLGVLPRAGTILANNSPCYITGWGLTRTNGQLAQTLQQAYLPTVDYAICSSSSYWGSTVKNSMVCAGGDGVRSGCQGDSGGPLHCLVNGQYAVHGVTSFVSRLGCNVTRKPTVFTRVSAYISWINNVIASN
Method: The in vitro inhibitory effects of SPs and their glycosides on elastase activity (known as anti-wrinkle bioactivities) were assessed using porcine pancreas elastase (Sigma-Aldrich). Its synthetic substrate AAAPVN (Sigma-Aldrich) was dissolved in phosphate buffer (pH 8.0, 200 mM). In each well of a 96-well microplate, the above elastase (20 μL) was mixed with the SPs and their glycosides in the phosphate buffer (150 μL) and then pre-incubated at 25 °C for 15 min prior to substrate AAAPVN (30 μL) supplementation.

[8] = system: recombinant StSPGT glycosyltransferase; assay: Michaelis-Menten kinetics of recombinant StSPGT glycosyl transfer; type: biochemical, Streptomyces tenjimariensis ATCC 31603
Text: (§1) To learn more details about the enzymatic function of a recombinant StSPGT, we investigated and determined its bio-catalytic properties using two nucleotide sugars as the glycosyl donor substrates; the production velocities of the corresponding glycosides were plotted against the varied glycosyl donor concentrations, […] with fixed acceptor concentrations. […]
(§2) the pGEM T-Easy vector (Promega, Madison, WI, USA) and transformed into E. coli XL1-Blue strain (Stratagene, La Jolla, CA, USA). The resultant plasmid obtained from was sequenced; the amplified ORF of interest (annotated as StSPGT) was deposited as GenBank Accession No.
The NdeI/XhoI-digested fragment excised from the aforementioned pGEM T-Easy vector was cloned into the same sites of the expression vector pET-28a(+) (Novagen, San Diego, CA, USA) and expressed as an N-terminal fusion protein with an His6 tag in E. coli BL21(DE3) strain (selected with […] kanamycin). After induction using 0.5 mM IPTG (Sigma-Aldrich) followed by an overnight incubation at 22°C, the cells were harvested and then disrupted by ultrasonication. The His6-tagged protein from the lysate was purified with TALON-metal affinity resin (Clontech, Mountain View, CA, USA) equilibrated with 50 mM phosphate buffer (0.3 M NaCl, 20 mM imidazole) and incubated at 4°C for 1 hr. After 5 min of refrigerated centrifuge at 2000 rpm, the resin was introduced into a disposable column and washed with phosphate buffer containing 20 mM imidazole, equivalent to 8 times the amount of the resin. Finally, recombinant […]
imidazole . The protein concentration was determined according to the Bradford method and the purified StSPGT was stored at −20°C prior to enzymatic reactions.
In vitro Enzymatic GT Reactions and Its Kinetic Studies
After dissolving two SP acceptor substrates, including HPP2 and HPP3, in methanol at 100 mM, we diluted them with a reaction buffer solution (50 mM phosphate buffer, 10 mM magnesium chloride and 1 mg/mL bovine serum albumin; pH 7.4) to the final concentration of 1 mM. Then we added 30 μM StSPGT glycosyltransferase along with four different nucleotide-activated glycosyl […]
GT reaction at 30°C for 30 min. After reaction, an equal volume of ethyl acetate was immediately added to quench the reaction. The organic solvent layer was evaporated to dryness at 40°C by […]
vacuum centrifugation (EYELA, Tokyo, Japan), and finally reconstituted in methanol prior to HPLC-tandem mass spectrometric (MS/MS) analysis.
For the determination of the kinetic parameters for each SP acceptor substrate, the concentration of glycosyl donor was fixed at 2 mM, while the concentration of SP was varied from […]

StSPGT [9] = system: T3, StSPGT; assay: Michaelis-Menten kinetics of glycosyl transfer by HPLC-MS/MS product quantitation, donor varied 0.1-1.2 mM at fixed 1.0 mM acceptor HPP2, 50 mM phosphate pH 7.4, 10 mM MgCl2, 30 °C.; type: biochemical; settings: SD, n = 3
T3 construct: recombinant, N-terminal His6 tag, pET-28a(+), expressed in E. coli BL21(DE3)
Text: as §1, §2
(§3) The NdeI/XhoI-digested fragment excised from the aforementioned pGEM T-Easy vector was cloned into the same sites of the expression vector pET-28a(+) (Novagen, San Diego, CA, USA) and expressed as an N-terminal fusion protein with an His6 tag in E. coli BL21(DE3) strain (selected with […] kanamycin). After induction using 0.5 mM IPTG (Sigma-Aldrich) followed by an overnight incubation at 22°C, the cells were harvested and then disrupted by ultrasonication. […]
(§4) imidazole . The protein concentration was determined according to the Bradford method and the purified StSPGT was stored at −20°C prior to enzymatic reactions. […]

StSPGT [10] = system: T3, StSPGT; assay: Michaelis-Menten kinetics of glycosyl transfer by HPLC-MS/MS product quantitation, donor varied 0.1-1.2 mM at fixed 1.0 mM acceptor HPP3, 50 mM phosphate pH 7.4, 10 mM MgCl2, 30 °C.; type: biochemical; settings: SD, n = 3
Text: as §1, §2, §3, §4

[11] = system: intracellular ROS in TBHP-induced B16F10 cells; assay: DCFDA cellular ROS detection assay in TBHP-induced B16F10 cells; type: cell-based, murine; settings: 5.0, 10 and 20 μM tested
Method: The intracellular reactive oxygen species (ROS) level was quantitatively determined using the dichlorofluorescin diacetate (DCFDA) cellular ROS detection assay kit (ab113851, Abcam, Cambridge, UK), according to the manufacturer’s instructions. Briefly, B16F10 cells were seeded in a 24-well plate at a density of 2 × 10^3 cells/well. The cells were washed three times using PBS and subjected to staining with 20 μM DCFDA in PBS for 20 min at 37 °C under dark conditions. After staining, the cells were washed with PBS again and incubated with 50 μM TBHP solution (Sigma-Aldrich, St. Louis, MO, USA). Cells were treated time-dependently (10, 30 min and 1 h) with the indicated concentrations of SPs and their glycosides in 0.1% bovine serum albumin containing culture media after DCFDA incubation. The ROS level was analyzed by a fluorescence microplate reader (SpectraMax Gemini XPS/EM, Molecular Devices, Sunnyvale, CA, USA) set at an excitation wavelength of 485 nm and an emission wavelength of 545 nm. Relative fluorescence intensity of controls was equated to 100%, with treatment conditions estimated proportionally.
The in vitro antioxidant activity of SP aglycones and their corresponding glycosides was evaluated through their DPPH-driven radical scavenging abilities in comparison with a well-known antioxidant, L-ascorbic acid. […] Although the mean IC50 values of HPP2G and HPP2DG appear to be a little lower than those of HPP3G and HPP3DG, respectively, there was, however, no statistically significant difference found within (also between) these glycoside groups. Next, we implemented a DCFDA cell-based ROS detection assay to determine whether the SP aglycones and their glycoside analogs function in vivo as antioxidants against intracellular ROS synthesis in the above-described B16F10 cells or not. The TBHP-induced cells were further incubated with different concentrations (5.0, 10 and 20 μM) of SPs and their glycosides for varied time periods (10, 30 min and 1 h).

SMILES | IC50 [4] [µM] | IC50 [6] [µM] | IC50 [7] [µM] | inhibition of α-MSH-induced intracellular melanin biosynthesis [2] | maximal ROS-scavenging activity [11] [%] | also measured
OC[C@H]1O[C@H](Oc2ccc(O)cc2)[C@H](O)[C@@H](O)[C@@H]1O [α-arbutin] |  |  |  | about 20.3% |  | change of cell viability [1]: less than 5 % of the control; cytotoxicity for the B16F10 cells [3]: no cytotoxicity
CCC(O)c1ccc(O)cc1 (stereo not shown) [HPP3] | 19.3 | 23.4 | 99.1 | 21.7% |  | fold higher tyrosinase inhibitory effect than kojic acid [6]: ~3.3 fold; kcat ([8]; donor TDP-2′dGlc): 0.1865 ± 0.0372 s⁻¹; kcat ([8]; donor UDP-Glc): 0.2812 s⁻¹ and 0.2812 ± 0.0497 s⁻¹
Cc1cn([C@H]2C[C@H](O)[C@@H](COP(=O)(O)OP(=O)(O)O[C@@H]3C[C@@H](O)[C@H](O)[C@@H](CO)O3)O2)c(=O)[nH]c1=O [TDP-2′dGlc, thymidine diphosphate-2′-deoxyglucose] |  |  |  |  |  | Km (StSPGT [9]): 0.41 ± 0.07 mM; Km (StSPGT [10]): 0.5 ± 0.09 mM
CC(Cc1ccc(O)cc1)O[C@H]1O[C@H](CO)[C@@H](O)[C@H](O)[C@H]1O (stereo partly drawn) [HPP2G, hydroxyphenyl-2-propanoyl-O-α-glucoside] |  | 14.8 | 22.1 |  | 52.0 | 
CC(Cc1ccc(O)cc1)O[C@@H]1C[C@@H](O)[C@H](O)[C@@H](CO)O1 (stereo partly drawn) [HPP2DG, hydroxyphenyl-2-propanoyl-O-α-2″-deoxyglucoside] |  | 13.8 | 25.3 |  | 54.3 | 
CCC(O[C@H]1O[C@H](CO)[C@@H](O)[C@H](O)[C@H]1O)c1ccc(O)cc1 (stereo partly shown) [HPP3G] |  | 29.1 | 31.5 |  | 48.9 | 
CC(O)Cc1ccc(O)cc1 (stereo not shown) [HPP2] | 18.5 | 11.6 | 95.3 | 50.3% |  | fold higher tyrosinase inhibitory effect than kojic acid [6]: about 6.6 fold; kcat ([8]; donor TDP-2′dGlc): 0.2155 ± 0.0363 s⁻¹; kcat ([8]; donor UDP-Glc): 0.3235 s⁻¹ and 0.3235 ± 0.0537 s⁻¹
CCC(O[C@@H]1C[C@@H](O)[C@H](O)[C@@H](CO)O1)c1ccc(O)cc1 (stereo partly shown) [HPP3DG] |  | 30.9 | 30.7 |  | 45.7 | 

The next lines start with results.

IC50 [4] [µM] | IC50 [6] [µM] | IC50 [7] [µM] | SMILES | inhibition of α-MSH-induced intracellular melanin biosynthesis [2] | maximal ROS-scavenging activity [11] [%] | also measured
23 |  |  | O=C1O[C@H]([C@@H](O)CO)C(O)=C1O [L-ascorbic acid, reference compound] |  |  | IC50 [5]: 22 µM
 | 10.3 |  | Oc1ccc(O)cc1 [hydroquinone, reference compound] |  |  | 
